Laboratory results as given in US20150139979A1, “METHODS OF TREATING A DISEASE OR DISORDER ASSOCIATED WITH BRUTON'S TYROSINE KINASE” (Celgene Avilomics Research, Inc., priority 2013, published 2015).
Where two headings read alike, the source gives them in different places.

How the values were obtained:
[1] = test system: B-cell non-Hodgkin lymphoma; test: Single agent clinical study in B-cell non-Hodgkin lymphoma; type: in vivo
Method: As of Sep. […] See U.S. patent application Ser. No. 13/661,678 and International Patent Application No. PCT/US2012/062133, both filed on Oct. 26, 2012, each of which is hereby incorporated by reference in its entirety. […] Studies are ongoing and additional dose levels currently being investigated include: 1000 mg QD, 1250 mg QD, 375 mg BID and 500 mg BID.

Solubility = type: physicochemical
Environmental stability = type: physicochemical

C=CC(=O)Nc1cccc(Nc2nc(Nc3ccc(OCCOC)cc3)ncc2F)c1.O=S(=O)(O)c1ccccc1 [Compound 1 besylate, N-(3-(5-fluoro-2-(4-(2-methoxyethoxyl)phenylamino)pyrimidin-4-ylamino)phenyl)acrylamide besylate]
evaluable B-NHL patients with decreased lymph node size ([1]; monotherapy): Six of eleven
patients with B-cell non-Hodgkin lymphoma who experienced stable disease ([1]; monotherapy, as of Sep. 11, 2012): 9 out of 17
solubility (Solubility; ethanol, organic solvent or mixture, read-out: solubility in ethanol): ~10000 µg/mL
solubility (Solubility; water, read-out: solubility in water): ~160 µg/mL
environmental instabilities (heat, acid, base) (Environmental stability): no environmental instabilities

C=CC(=O)Nc1cccc(Nc2nc(Nc3ccc(OCCOC)cc3)ncc2F)c1 [Compound 1, N-(3-(5-fluoro-2-(4-(2-methoxyethoxyl)phenylamino)pyrimidin-4-ylamino)phenyl)acrylamide]
maximum tolerated dose (MTD) ([1]; single agent, up to 750 mg PO QD): has not yet been reached
